These results are taken from patent publication US20040038201A1, “Diagnostic and therapeutic applications for biomarkers of infection” (Whitehead Institute for Biomedical Research, priority 2002, published 2004).

Experiment [1] relates to mycobacterial infection. Conditions: supplemental IL-12; cited from earlier work.
In experiment [2] the test system is M. abscessus infection, M. tuberculosis infection. Conditions: exogenous IL-12 therapy; cited from earlier work.
Experiment [3] concerns human macrophages. The experiment can be described thus: Differential (Gram-negative/TLR4-specific) macrophage gene expression after bacterial components or cytokines, HuFL GeneChips. It counts as cell-based. Conditions: for induction of the TLR4-induced core cluster of genes by cytokines: IFNs at 1000 units/mL; for expression pattern of the 101 genes differentially regulated by Gram-negative versus Gram-positive bacteria: LPS 1 μg/mL, LTA 10 μg/mL, MDP 100 μg/mL, fMLP 100 nM.

Experiment [4] deals with human macrophages. It counts as cell-based. Conditions: 24-hour time course; LPS 1 μg/mL, LTA 10 μg/mL, MDP 100 μg/mL, hsps 10 μg/mL.
Experiment [5] deals with T1, TLR-4 (Homo sapiens, UniProt O00206+Q9Y6Y9).
T1 construct: endogenous in cells; host or cells: human monocyte-derived macrophages (primary)
The experiment can be described thus: TLR-4 antagonist (RSLA) pretreatment, TNF-alpha ELISA of stimulated macrophages. Format: cell-based. Conditions: 1 μg/mL RSLA, 30 minutes pretreatment; 10 μg/mL hsp70. How it is done: FIG. 9 is a graphical representation showing a specific TLR-4 antagonist inhibits production of TNF-alpha by hsp70. Monocytes were plated at […] in 96-well Primaria plates and matured to macrophages as described. Cells were washed with Hank's Balanced Salt Solution incubated overnight in DMEM, 1% human serum, and pretreated for 30 minutes at 37° C. with 1 μg/mL Rhodobacter sphaeroides lipid A (RSLA). RSLA is a specific antagonist of TLR-4. Cells were then stimulated with 0.1 MOI E. coli sd-4, 1 μg/mL LPS, or 10 μg/mL hsp70 to duplicate, and culture media was collected at 0, 2, 6, and 12 hours. ELISAs were performed using manufacturer's protocols.

Experiment [6] relates to human macrophages. The experiment can be described thus: I-TAC ELISA of macrophage supernatants. It counts as cell-based. Conditions: for I-TAC production by macrophages in response to IFNs: 100 units/mL IFN; for I-TAC production by macrophages in response to bacterial components: supernatants after 24 hours, LPS 1 μg/mL, MDP 100 μg/mL.
Experiment [7] concerns macrophages. It counts as cell-based, human.
In experiment [8] the test system is human macrophages. Kind of experiment: IL-12 p70 ELISA of macrophage supernatants. It counts as cell-based. Conditions: LPS 1 μg/mL, MDP 100 μg/mL.
For experiment [9], the system named is human macrophages. The experiment can be described thus: IL-12 p40 ELISA of macrophage supernatants. Format: cell-based. Conditions: LPS 1 μg/mL, MDP 100 μg/mL. (In general: In an ELISA, binding on a coated surface is turned into a signal by an enzyme label.)
Experiment [10] relates to dendritic cells. The experiment can be described thus: I-TAC production by dendritic cells (ELISA). Conditions: 24 hours after exposure to LPS or lipoteichoic acid.
For experiment [11], the system named is STAT1. The experiment can be described thus: Phosphorylation of macrophage STAT1. It counts as cell-based, human.

T1 sequence (O00206 24-839): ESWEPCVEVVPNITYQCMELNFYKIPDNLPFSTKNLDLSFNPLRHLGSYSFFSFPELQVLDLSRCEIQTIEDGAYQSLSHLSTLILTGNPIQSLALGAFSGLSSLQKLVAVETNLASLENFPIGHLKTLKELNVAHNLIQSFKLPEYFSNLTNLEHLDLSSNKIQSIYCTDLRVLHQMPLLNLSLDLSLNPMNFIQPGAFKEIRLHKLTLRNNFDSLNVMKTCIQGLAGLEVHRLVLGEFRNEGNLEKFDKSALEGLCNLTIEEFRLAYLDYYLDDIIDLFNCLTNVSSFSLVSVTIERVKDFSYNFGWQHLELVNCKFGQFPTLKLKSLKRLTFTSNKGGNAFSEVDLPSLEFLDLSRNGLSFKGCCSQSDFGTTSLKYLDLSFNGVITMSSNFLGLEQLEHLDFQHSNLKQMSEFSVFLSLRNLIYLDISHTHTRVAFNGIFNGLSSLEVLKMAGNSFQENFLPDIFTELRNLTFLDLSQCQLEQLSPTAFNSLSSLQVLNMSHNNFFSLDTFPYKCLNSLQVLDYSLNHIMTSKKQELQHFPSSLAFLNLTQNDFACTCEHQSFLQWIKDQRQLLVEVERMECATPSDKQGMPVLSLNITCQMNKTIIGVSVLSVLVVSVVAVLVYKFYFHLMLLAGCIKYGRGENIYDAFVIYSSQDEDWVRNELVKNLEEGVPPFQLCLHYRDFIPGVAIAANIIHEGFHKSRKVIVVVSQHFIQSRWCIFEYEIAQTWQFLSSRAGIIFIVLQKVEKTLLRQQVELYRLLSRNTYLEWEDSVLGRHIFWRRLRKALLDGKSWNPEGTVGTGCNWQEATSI
T1 sequence (Q9Y6Y9 17-160 limits assumed): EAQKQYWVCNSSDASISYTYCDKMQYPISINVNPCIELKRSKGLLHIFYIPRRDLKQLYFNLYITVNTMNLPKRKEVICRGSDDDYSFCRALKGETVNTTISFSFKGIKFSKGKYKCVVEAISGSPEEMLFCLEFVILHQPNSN

For the molecule “IL-12: cytokine incubated with macrophages; exogenous IL-12 therapy in cited studies”, the “clearance of mycobacterial infection in normal mice” value in experiment [1] is given as “enhances the ability of normal mice to clear a mycobacterial infection”. In addition, the “clinical outcome in patients with infections refractory to antibiotics and supplemental IFN-γ” value in experiment [2] was “rescued two patients”. In experiment [3], the “induction of the TLR4-induced core cluster of genes by cytokines” value (shortened to “induction … by cytokines”) is given as “failed to induce comparable gene expression changes”.

As for monophosphoryl lipid A, the “induction of the macrophage activation program (gene expression changes)” value (“induction … (gene expression changes)” for short) in experiment [4] is reported as “failed to induce this set of gene expression changes”.

As for Rhodobacter sphaeroides lipid A [RSLA], the “production of TNF-alpha by hsp70-stimulated macrophages after antagonist pretreatment” value in experiment [5] is given as “inhibits”.

In the case of IFN-α, the “induction … by cytokines” value in [3] is recorded as “sufficient to induce the expression of the TLR4-induced core cluster of genes”. For the same molecule, the “I-TAC production by macrophages in response to IFNs” value in [6] was “sufficient to induce I-TAC production”.

With lipoteichoic acid [LTA], the “induction … (gene expression changes)” value in experiment [4] is given as “induced the majority of the activation program”. Besides, in experiment [3], the “induction of the cluster of nine genes specific to Gram-positive bacteria” value is reported as “insufficient to induce this small cluster of genes” and the “expression pattern of the 101 genes differentially regulated by Gram-negative versus Gram-positive bacteria” value is listed as “induced gene expression changes similar to the Gram-positive organisms”. For the same molecule, the “I-TAC production by macrophages in response to bacterial components” value (“I-TAC production … to bacterial components” below) in experiment [6] is “not”.

For “hsp70: Recombinant mycobacterial heat shock protein from StressGen”, the “cytokine elicited relative to the endotoxin-equivalent amount of LPS” value in experiment [7] (0.06 Eu/mL = 13 pg/mL LPS, 10 μg/mL hsp 70) was 3-6 times. The “induction … (gene expression changes)” value in [4] is reported as “induced the majority of the activation program”.

For IFN-γ: IFN-γ from R&D Systems, the “induction … by cytokines” value in experiment [3] is given as “sufficient to induce the expression of the TLR4-induced core cluster of genes”. The “I-TAC production by macrophages in response to IFNs” value in experiment [6] is listed as “sufficient to induce I-TAC production”.

For lipopolysaccharide [LPS], in experiment [7] (LPS titration), the “endotoxin levels that did not stimulate production of either cytokine (TNF-alpha, IL-12 p40)” value was “lower than 1.4 Eu/mL” and the “endotoxin required to elicit IL-12 p40 relative to TNF-alpha” value is given as “Roughly 100 fold”. Besides, the “IL-12 p70 production by macrophages in response to bacterial components” value in experiment [8] is listed as “stimulated p70 production”. Besides, the “induction … (gene expression changes)” value in experiment [4] is given as “induced the majority of the activation program”. Further, the “IL-12 p40 secretion by macrophages” value in [9] is “elicited”. Besides, the “maximum level of I-TAC secretion, dendritic cells” value in experiment [10] was 59 ng/mL. In addition, in [3], the “gene expression changes compared with whole Gram-negative bacteria” value is “less robust in magnitude and duration”; the “expression pattern of the 101 genes differentially regulated by Gram-negative versus Gram-positive bacteria” value was “recapitulated the expression pattern of the 101 genes”. Further, the “phosphorylation of macrophage STAT1” value in experiment [11] is reported as “observed”. Moreover, in experiment [6] (24 hours after exposure to LPS or lipoteichoic acid), the “maximum level of I-TAC secretion, macrophages” value was 2.8 ng/mL. Further, the “I-TAC production … to bacterial components” value in [6] was “induced”.

For the molecule `CC(=O)N[C@H]1C(O)O[C@H](CO)[C@@H](O)[C@@H]1O[C@H](C)C(=O)N[C@@H](C)C(=O)N[C@H](CCC(=O)O)C(N)=O` (mixture of isomers) [MDP, muramyl dipeptide], the “IL-12 p70 production by macrophages in response to bacterial components” value in [8] is “did not”. Also, the “induction … (gene expression changes)” value in experiment [4] is on record as “induced the majority of the activation program”. The “IL-12 p40 secretion by macrophages” value in [9] is reported as “elicited”. Further, in [3], the “induction of the cluster of nine genes specific to Gram-positive bacteria” value was “insufficient to induce this small cluster of genes” and the “expression pattern of the 101 genes differentially regulated by Gram-negative versus Gram-positive bacteria” value was “induced gene expression changes similar to the Gram-positive organisms”. Besides, the “I-TAC production … to bacterial components” value in experiment [6] was “not”.

Regarding “formyl-methionine-leucine-phenylalanine [formyl-MetLeuPhe]”, in experiment [3], the “expression pattern of the 101 genes differentially regulated by Gram-negative versus Gram-positive bacteria” value is “failed to induce expression changes that were characteristic of either class of bacteria”.

B1: IL-10: cytokine incubated with macrophages (protein, UniProt P22301 19-178, looked up)
Interleukin-10: SPGQGTQSENSCTHFPGNLPNMLRDLRDAFSRVKTFFQMKDQLDNLLLKESLLEDFKGYLGCQALSEMIQFYLEEVMPQAENQDPDIKAHVNSLGENLKTLRLRLRRCHRFLPCENKSKAVEQVKNAFNKLQEKGIYKAMSEFDIFINYIEAYMTMKIRN
On to B1, for which, in experiment [3], the “induction … by cytokines” value was “failed to induce comparable gene expression changes”.
